Inhibition data for three compounds are collected here from US20220009920A1 (GB005, Inc., priority 2020, published 2022).

The inhibition is the change of the read-out against control, counted positive when it falls.

Experiment in all cases: Large panel kinase profiling
What all share (type): biochemical
Holding throughout (conditions): 1 μM test article, 1 mM ATP

One assay deals with T1, AXL (Homo sapiens, UniProt P30530).
T1 sequence (P30530 26-894): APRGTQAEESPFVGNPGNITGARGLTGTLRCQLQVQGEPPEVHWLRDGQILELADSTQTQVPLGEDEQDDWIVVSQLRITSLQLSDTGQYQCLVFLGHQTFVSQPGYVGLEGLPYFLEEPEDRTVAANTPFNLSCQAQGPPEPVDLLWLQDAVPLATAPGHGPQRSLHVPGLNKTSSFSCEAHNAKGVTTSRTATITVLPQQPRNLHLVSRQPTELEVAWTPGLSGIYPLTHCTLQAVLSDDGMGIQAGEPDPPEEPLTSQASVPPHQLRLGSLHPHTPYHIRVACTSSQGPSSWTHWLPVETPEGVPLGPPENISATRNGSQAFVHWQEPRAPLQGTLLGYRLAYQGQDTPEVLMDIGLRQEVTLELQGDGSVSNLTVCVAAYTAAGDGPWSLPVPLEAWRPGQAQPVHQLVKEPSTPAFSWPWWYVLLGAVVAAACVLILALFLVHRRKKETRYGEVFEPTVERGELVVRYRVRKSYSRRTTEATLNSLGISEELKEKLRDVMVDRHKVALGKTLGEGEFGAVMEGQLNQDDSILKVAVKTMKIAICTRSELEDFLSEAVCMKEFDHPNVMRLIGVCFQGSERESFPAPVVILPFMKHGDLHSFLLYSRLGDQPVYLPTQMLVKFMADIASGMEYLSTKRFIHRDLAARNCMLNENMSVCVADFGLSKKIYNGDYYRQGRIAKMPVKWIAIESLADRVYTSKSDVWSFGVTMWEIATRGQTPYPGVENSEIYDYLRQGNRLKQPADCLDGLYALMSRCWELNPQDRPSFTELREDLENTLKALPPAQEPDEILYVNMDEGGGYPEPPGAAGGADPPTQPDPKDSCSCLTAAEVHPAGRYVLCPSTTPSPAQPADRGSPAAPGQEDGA
In a few lines: (§1)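 Fluorescence intensity (Ex 360 nm, Em 485 nm) was monitored continuously, once per minute, in PhosphoSens CSox-Sensor kinase reactions held at 30° C. Compound was present at 1 μM and ATP at 1 mM.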

The target in the next assay is T2, MAPK12/P38G (Homo sapiens, UniProt P53778).
T2 construct: AssayQuant Technologies, Inc. (service provider)
T2 sequence (P53778 1-367): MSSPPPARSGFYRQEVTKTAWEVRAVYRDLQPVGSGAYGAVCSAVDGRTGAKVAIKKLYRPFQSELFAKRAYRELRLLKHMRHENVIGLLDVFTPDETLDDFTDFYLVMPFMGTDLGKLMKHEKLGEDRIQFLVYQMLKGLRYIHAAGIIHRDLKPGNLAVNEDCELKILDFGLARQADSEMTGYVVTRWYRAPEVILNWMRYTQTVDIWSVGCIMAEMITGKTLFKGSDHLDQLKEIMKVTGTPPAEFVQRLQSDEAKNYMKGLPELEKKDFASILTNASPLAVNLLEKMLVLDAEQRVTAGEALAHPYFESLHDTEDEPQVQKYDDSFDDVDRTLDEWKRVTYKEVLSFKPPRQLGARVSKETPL
In a few lines: as §1

A further assay addresses PTK6 (Homo sapiens, UniProt Q13882). Summed up: as §1
The target in a further assay is T3, TAOK3 (Homo sapiens, UniProt Q9H2K8).
T3 construct: AssayQuant Technologies, Inc. (contract assay)
T3 sequence (Q9H2K8 1-898): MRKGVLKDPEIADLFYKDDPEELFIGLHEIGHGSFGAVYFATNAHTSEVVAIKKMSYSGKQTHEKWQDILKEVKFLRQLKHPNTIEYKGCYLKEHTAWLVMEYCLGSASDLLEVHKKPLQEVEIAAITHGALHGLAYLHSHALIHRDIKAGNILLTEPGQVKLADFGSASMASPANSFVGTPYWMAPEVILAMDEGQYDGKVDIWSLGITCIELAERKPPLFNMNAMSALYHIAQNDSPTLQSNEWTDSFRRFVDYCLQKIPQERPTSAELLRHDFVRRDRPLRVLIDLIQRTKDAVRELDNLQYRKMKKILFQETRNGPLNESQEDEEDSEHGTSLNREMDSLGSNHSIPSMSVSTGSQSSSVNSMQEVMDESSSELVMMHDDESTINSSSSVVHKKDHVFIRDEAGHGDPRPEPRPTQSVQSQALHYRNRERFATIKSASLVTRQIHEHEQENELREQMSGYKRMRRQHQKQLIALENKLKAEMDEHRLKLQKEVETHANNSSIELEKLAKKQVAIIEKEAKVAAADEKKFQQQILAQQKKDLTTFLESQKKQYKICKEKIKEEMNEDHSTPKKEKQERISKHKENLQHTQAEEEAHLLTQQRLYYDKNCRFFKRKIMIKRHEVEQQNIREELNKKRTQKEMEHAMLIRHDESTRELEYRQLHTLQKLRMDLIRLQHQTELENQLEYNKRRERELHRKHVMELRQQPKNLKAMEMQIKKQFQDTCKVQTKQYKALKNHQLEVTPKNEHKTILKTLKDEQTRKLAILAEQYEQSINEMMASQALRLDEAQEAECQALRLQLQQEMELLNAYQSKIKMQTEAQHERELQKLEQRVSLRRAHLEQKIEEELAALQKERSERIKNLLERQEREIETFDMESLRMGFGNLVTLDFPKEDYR
In a few lines:
as §1

SMILES strings stand for the structures.

Chain of PTK6 (Q13882 whole entry, species assumed): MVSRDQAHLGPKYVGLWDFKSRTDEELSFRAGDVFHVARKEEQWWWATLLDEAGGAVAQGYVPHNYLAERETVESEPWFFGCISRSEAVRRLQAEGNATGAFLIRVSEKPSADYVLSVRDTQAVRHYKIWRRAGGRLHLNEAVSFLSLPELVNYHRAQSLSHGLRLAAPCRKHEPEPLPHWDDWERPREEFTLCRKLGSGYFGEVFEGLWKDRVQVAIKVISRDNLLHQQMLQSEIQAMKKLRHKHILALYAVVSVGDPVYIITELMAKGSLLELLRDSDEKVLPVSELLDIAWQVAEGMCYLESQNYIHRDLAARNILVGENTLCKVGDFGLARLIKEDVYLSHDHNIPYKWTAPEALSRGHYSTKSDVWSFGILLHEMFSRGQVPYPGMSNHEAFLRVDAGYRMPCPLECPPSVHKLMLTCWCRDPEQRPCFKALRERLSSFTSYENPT

For the compound `C=CC(=O)N1CCC[C@@H](c2c(F)cc(C(N)=O)c3[nH]c4c(c23)CCC4)C1` [Compound 10-2, (S)-8-(1-acryloylpiperidin-3-yl)-7-fluoro-1,2,3,4-tetrahydrocyclo-penta[b]indole-5-carboxamide], the inhibition at 1 µM against AXL was -1.7%; against MAPK12/P38G, 4.2%; at PTK6, 10.1%; against TAOK3 it was -2.9%.
The corresponding values for `C=CC(=O)N1CCCC(c2c(F)cc(C(N)=O)c3[nH]c4c(c23)CCCCC4)C1` (single isomer, unassigned) [Compound 5-6] are -20.3%, -1.9%, -14.1% and 14.1%.
For the compound `C=CC(=O)N1CCC[C@@H](c2c(F)cc(C(N)=O)c3[nH]c4c(c23)CC2(CC4)CC2)C1` [Compound 6-2, (S)-5-(1-acryloylpiperidin-3-yl)-6-fluoro-1,2,4,9-tetrahydrospiro[carbazole-3,1′-cyclopropane]-8-carboxamide], the inhibition at 1 µM amounted to 1.5% against AXL, 31.3% against MAPK12/P38G, 22.2% against PTK6 and 1.6% against TAOK3.
